Laboratory results reported in US6677315B2, “Nucleosides for imaging and treatment applications” (The United States of America as represented by the …, priority 1997, dated 2004).

Assays:
[1] = target: T1, thymidylate synthase in CEM cells (Homo sapiens, UniProt P04818); test: Dehalogenation of IdUrd as probe for thymidylate synthase activity in situ; type: cell-based; conditions: 3 μM [3H]-IdUrd for 24 hours, fraction in DNA
T1 construct: endogenous in cells; host or cells: CEM cells
Protocol: (§1) The relative activity of thymidylate synthase was determined after incubation of cells with 3 μM [3H]-IdUrd for 24 hours. DNA was harvested, digested, and chromatographed as described above. Some IdUrd was incorporated into DNA with the iodine remaining intact on the pyrimidine ring. After conversion to IdUMP, part of the IdUrd was dehalogenated by TS to dUMP, which then was converted by TS into dTMP and subsequently incorporated into DNA, and recovered in the DNA digest as [^3H-dThd]. Relative TS activity in situ was defined as the fraction of IdUrd-derived material in DNA which was dehalogenated, i.e., ([^3H]-dThd)/([^3H]-dThd+[^3H]-IdUrd). These methods could also be used with non-radioactive IdUrd, if a stable isotopic label is used, e.g., ^13C, ^15N or ^2H. A mass spectrometric detector would be substituted for the radioactivity detector in the HPLC analysis. Unlabeled IdUrd can't be used since its dehalogenation produced unlabeled dThd, which would be indistinguishable from the endogenous pool of dThd in DNA.

[2] = target: T2, thymidylate synthase in MOLT-4 cells (Homo sapiens, UniProt P04818); test: as above; type: cell-based; conditions: MOLT-4, 3 μM [3H]-IdUrd for 24 hours, fraction in DNA
T2 construct: endogenous in cells; host or cells: MOLT-4 cells
T2 sequence (P04818 whole entry): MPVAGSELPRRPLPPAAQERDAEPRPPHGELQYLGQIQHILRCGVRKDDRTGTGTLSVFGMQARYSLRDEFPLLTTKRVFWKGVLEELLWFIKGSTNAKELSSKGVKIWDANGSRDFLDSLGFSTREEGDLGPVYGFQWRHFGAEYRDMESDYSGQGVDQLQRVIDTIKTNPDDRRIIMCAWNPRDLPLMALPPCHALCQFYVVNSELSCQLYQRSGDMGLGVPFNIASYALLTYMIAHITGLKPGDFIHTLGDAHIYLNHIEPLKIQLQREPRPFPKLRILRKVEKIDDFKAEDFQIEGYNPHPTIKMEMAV
Protocol: as §1

[3] = target: T3, thymidylate synthase in RAJI cells (Homo sapiens, UniProt P04818); test: as above; type: cell-based; conditions: 3 μM [3H]-IdUrd for 24 hours, fraction in DNA
T3 construct: endogenous in cells; host or cells: RAJI cells
T3 sequence (P04818 whole entry): as above
Protocol: as §1

[4] = target: T4, thymidylate synthase in U-937 cells (Homo sapiens, UniProt P04818); test: as above; type: cell-based; conditions: U-937, 3 μM [3H]-IdUrd for 24 hours, fraction in DNA
T4 construct: endogenous in cells; host or cells: U-937 cells
T4 sequence (P04818 whole entry): as above
Protocol: as §1

[5] = target: T5, thymidylate synthase in L1210 cells (Mus musculus, UniProt P07607); test: as above; type: cell-based, murine; conditions: L1210, 3 μM [3H]-IdUrd for 24 hours, fraction in DNA
T5 construct: endogenous in cells; host or cells: L1210 cells
T5 sequence (P07607 whole entry): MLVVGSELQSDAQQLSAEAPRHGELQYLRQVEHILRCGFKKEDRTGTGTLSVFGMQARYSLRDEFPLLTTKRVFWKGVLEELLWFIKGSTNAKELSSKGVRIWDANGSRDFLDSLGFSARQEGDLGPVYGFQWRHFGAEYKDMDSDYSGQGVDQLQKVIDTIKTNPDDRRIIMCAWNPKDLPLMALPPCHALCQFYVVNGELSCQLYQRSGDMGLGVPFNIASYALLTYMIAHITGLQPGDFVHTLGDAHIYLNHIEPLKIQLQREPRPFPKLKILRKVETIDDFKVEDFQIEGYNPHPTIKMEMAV
Protocol: as §1

[6] = target: T6, thymidylate synthase (TS) in U-937 cell extracts (Homo sapiens, UniProt P04818); test: Methylation of FAUMP by thymidylate synthase in cell extracts (tritium release); type: biochemical; conditions: 20 μM substrate, tritiated water release
T6 construct: Cell extracts were prepared from each cell line by sonication of intact cells; endogenous in cells; host or cells: U-937 cells (sonicated extract)
T6 sequence (P04818 whole entry): as the sequence (P04818 whole entry) above
Protocol: (§2) When TS adds a methyl group to the 5-position of dUMP to generate dTMP, the proton at that location is released. When [5-^3H]dUMP is the substrate, TS activity in cell extracts can be assessed by monitoring the accumulation rate of tritiated water. Here, [5-^3H]FAUMP was used as the substrate for methylation by TS, and the generation of FMAUMP was determined from the release of tritiated water. Cell extracts were prepared from each cell line by sonication of intact cells. (See: Armstrong R D, Diasio R B. “Improved Measurement of Thymidylate Synthetase Activity by a Modified Tritium-Release Assay” J. Biochem. Biophys. Methods. 1982; 6: 141-7 and Speth P A J, Kinsella T J, Chang A E, Klecker R W, Belanger K. Collins J M. “Incorporation of Iododeoxyuridine into DNA of Hepatic Metastases Versus Normal Human Liver” Clin. Pharmacol. Ther. 1988; 44:369-75.) The methyl donor was provided by 5,10-methylene tetrahydrofolate, which was generated in situ by the addition of formaldehyde to tetrahydrofolate. At various times after the addition of substrate (20 μM of either [5-^3H]dUMP or [5-^3H]FAUMP), the reaction was stopped by addition of HCl. Unreacted substrate was separated from tritiated water by adsorption onto activated charcoal. After centrifugation, an aliquot of the supernatant was counted for tritiated water.

[7] = test system: thymidylate synthase (TS) in cell extracts of the other cell lines; test: Methylation of FAUMP by thymidylate synthase in cell extracts (tritium release), other cell lines; type: biochemical, human; murine; conditions: 20 μM substrate, tritiated water release
Protocol: as §2

CEM cells [8] = test: Growth inhibition, 72-hr continuous exposure; type: cell-based, human
Protocol: (§3) The human-derived cell lines CEM, MOLT-4, RAJI, U-937, K-562 and the murine-derived L1210 were purchased from the American Type Culture Collection, Rockville, Md. Cells were grown and maintained as a suspension culture in RPMI 1640 medium containing L-glutamine and 10%(v/v) heat-inactivated fetal calf serum (BRL-GIBCO, Rockville, Md.). Penicillin-streptomycin solution (Sigma Chemical Co., St. Louis, Mo.) was added to achieve a final concentration of 100 units/mL. and 100 μg/mL respectively.
(§4) All cell lines, except for L1210, were suspended in fresh media at 30,000 cells/mL. L1210 cells were suspended at 10,000 cells/mL. Cells, 2 mL, were added to each of the wells of 24-well plates and incubated with either 0 to 1000 μM of FAU or 0 to 300 μM of FMAU. Incubation was conducted at 37° C. in a humidified 5% CO2 atmosphere for 72 hours. Inhibition of cellular growth was assessed by cell counting (Elzone 180, Particle Data, Inc., Elmhurst, IL). Under these conditions, the control doubling times for CEM, MOLT-4, RAJI, U-937, and K-562 cells were 21-22 hours, while the doubling times for L1210 was 8-10 hours.

K-562 cells [9] = test: Growth inhibition, 72-hr continuous exposure; type: cell-based, human
Protocol: as §3, §4

MOLT-4 cells [10] = test: Growth inhibition, 72-hr continuous exposure; type: cell-based, human; conditions: MOLT-4, 100 μM, 72 hours continuous incubation
Protocol: as §3, §4

RAJI cells [11] = test: Growth inhibition, 72-hr continuous exposure; type: cell-based, human; conditions: 72 hours continuous incubation
Protocol: as §3, §4

U-937 cells [12] = test: Growth inhibition, 72-hr continuous exposure; type: cell-based, human; conditions: U-937, 100 μM, 72 hours continuous incubation
Protocol: as §3, §4

L1210 cells [13] = test: Growth inhibition, 72-hr continuous exposure; type: cell-based, murine; conditions: L1210, 100 μM, 72 hours continuous incubation
Protocol: as §3, §4

CEM cells [14] = test: Intracellular nucleotide formation and incorporation into DNA; type: cell-based, human; conditions: 10 μM FAU for 24 hours
Protocol: as §3
(§5) All cell lines, except for L1210, were resuspended in fresh media at 300,000 cells/mL with appropriate amount of radioactive drug. L1210 cells were resuspended at 150,000 cells/mL. After 24 hours at 37° C. in a humidified 5% CO2 atmosphere, cells were harvested for nucleotide measurement and DNA incorporation. Soluble nucleotides were determined for each cell line following exposure to 10 μM FAU. Incorporation of FAU into DNA (as FMAU) was determined over a range of FAU concentrations from 1 μM to 1 mM. As described previously by Klecker, R W, Katki A G, Collins J M. in “Toxicity, Metabolism, DNA Incorporation with Lack of Repair, and Lactate Production for 1-(2′-Fluoro-2′-deoxy-β-D-arabinofuranosyl)-5-iodouracil in U-937 and MOLT-4-cells”, Mol. Pharmacol. 1994; 46;1204-1209; and Speth P A J, Kinsella T J, Chang A E, Klecker R W, Belanger K. Collins J M. in “Incorporation of Iododeoxyuridine into DNA of Hepatic Metastases Versus Normal Human Liver.” Clin. Pharmacol. Ther. 1988; 44:369-75, DNase I and phosphodiesterase I were used to release the bases from DNA. These bases and soluble nucleotides were determined by previously reported HPLC-based methods as noted by Klecker et al. in the previously mentioned reference, “Toxicity, Metabolism, DNA Incorporation with Lack of Repair, and Lactate Production for 1-(2′-fluoro-2′-deoxy-β-D-arabinofuranosyl)-5-iodouracil in U-937 and MOLT-4-cells.” Drug incorporation into cellular DNA was determined using the equation: percent incorporation=100×([drug]/([dThd]+[drug]).

K-562 cells [15] = test: as above; type: cell-based, human; conditions: K-562, 10 μM FAU for 24 hours
Protocol: as §3, §5

MOLT-4 cells [16] = test: as above; type: cell-based, human; conditions: MOLT-4, 10 μM FAU for 24 hours
Protocol: as §3, §5

RAJI cells [17] = test: as above; type: cell-based, human; conditions: 10 μM FAU for 24 hours
Protocol: as §3, §5

U-937 cells [18] = test: as above; type: cell-based, human; conditions: U-937, 10 μM FAU for 24 hours
Protocol: as §3, §5

L1210 cells [19] = test: as above; type: cell-based, murine; conditions: L1210, 10 μM FAU for 24 hours; incorporated as FMAU
Protocol: as §3
(§6) All cell lines, except for L1210, were resuspended in fresh media at 300,000 cells/mL with appropriate amount of radioactive drug. L1210 cells were resuspended at 150,000 cells/mL. […] Soluble nucleotides were determined for each cell line following exposure to 10 μM FAU. Incorporation of FAU into DNA (as FMAU) was determined over a range of FAU concentrations from 1 μM to 1 mM. […] These bases and soluble nucleotides were determined by previously reported HPLC-based methods as noted by Klecker et al. in the previously mentioned reference, “Toxicity, Metabolism, DNA Incorporation with Lack of Repair, and Lactate Production for 1-(2′-fluoro-2′-deoxy-β-D-arabinofuranosyl)-5-iodouracil in U-937 and MOLT-4-cells.” Drug incorporation into cellular DNA was determined using the equation: percent incorporation=100×([drug]/([dThd]+[drug]).

[20] = test system: CEM, MOLT-4, RAJI, U-937, K-562 and L1210 cells; test: Intracellular nucleotide formation, all cell lines; type: cell-based, human; murine; conditions: incubation with 10 μM FAU for 24 hours
Protocol: as §3, §6

[21] = test system: CEM, MOLT-4, RAJI, U-937, K-562 and L1210 cells; test: Growth inhibition, 72-hr continuous exposure, all cell lines; type: cell-based, human; murine
Protocol: as §3, §4

mice = test: Toxicity in mice after oral gavage for 14 days; type: in vivo; conditions: oral gavage 5 g/kg once per day for 14 days, plus 14 days observation
Protocol: (§7) The toxicity of the compounds of the present invention has been evaluated in an animal model system. FAU was administered by oral gavage to mice at a dose of 5 g/kg once per day for 14 consecutive days. After an additional 14 days of observation following this dosing period, the animals were sacrificed. […] Blood samples were obtained at various times during this treatment, to confirm that the drug was adequately absorbed. HPLC analysis of these samples indicated FAU concentrations in plasma reached maximum levels of 750 micromolar and minimum levels of 50 micromolar.

[22] = FAU plasma concentrations in mice during oral dosing (HPLC); type: in vivo; conditions: oral gavage 5 g/kg once per day for 14 days
Protocol: as §7

T1 sequence (P04818 whole entry): as above

O=c1[nH]c(=O)n([C@H]2C[C@H](O)[C@@H](CO)O2)cc1I [IdUrd, Iododeoxyuridine]
relative dehalogenation of IdUrd [1]: ≥ 50%
relative dehalogenation of IdUrd [2]: ≥ 50%
relative dehalogenation of IdUrd [3]: ≤ 15%
relative dehalogenation of IdUrd [4]: ≥ 50%
relative dehalogenation of IdUrd [5]: ≤ 15%

O=c1ccn([C@@H]2O[C@H](COP(=O)(O)O)[C@@H](O)[C@@H]2F)c(=O)[nH]1 [FAUMP, FAU monophosphate]
rate of conversion to FMAUMP as % of the rate of dTMP formation from dUMP [6]: about 1%
rate of conversion to FMAUMP as % of the rate of dTMP formation from dUMP [7]: 0.97-1.5%

Cc1cn([C@H]2O[C@H](CO)[C@@H](O)[C@@H]2F)c(=O)[nH]c1=O [FMAU, 1-(2-deoxy-2-fluoro-alpha-D-arabinofuranosyl)thymine, reference compound]
effect on cell growth (CEM cells [8]; 0.3 μM (lowest concentration used), 72 hours): substantial effect
inhibition at 100 µM (CEM cells [8]; Homo sapiens, CCRF-CEM, 100 μM, 72 hours continuous incubation): > 80%
inhibition at 100 µM (K-562 cells [9]; Homo sapiens, K562, K-562, 100 μM, 72 hours continuous incubation): > 80%
effect on cell growth (K-562 cells [9]; K-562, 0.3 μM (lowest concentration used), 72 hours): substantial effect
inhibition at 100 µM (MOLT-4 cells [10]; Homo sapiens): > 80%
inhibition at 100 µM (RAJI cells [11]; Homo sapiens): > 80%
inhibition at 100 µM (U-937 cells [12]; Homo sapiens): > 80%
inhibition at 100 µM (L1210 cells [13]; Mus musculus): > 80%

O=c1ccn([C@@H]2O[C@H](CO)[C@@H](O)[C@@H]2F)c(=O)[nH]1 [FAU, 1-(2′Fluoro-2′deoxy-β-D-arabinofuranosyl)-uracil]
FAUMP formed intracellularly (CEM cells [14]): 0.96 ± 0.24 nmol/10^6 cells
FMAUTP formed intracellularly (CEM cells [14]): 2.30 ± 0.28 nmol/10^6 cells
DNA % incorp (CEM cells [14]; incorporated as FMAU): 0.81 ± 0.10%
FAUMP formed intracellularly (K-562 cells [15]): 11.1 ± 0.9 nmol/10^6 cells
DNA % incorp (K-562 cells [15]; incorporated as FMAU): 0.22 ± 0.002%
FMAUTP formed intracellularly (MOLT-4 cells [16]): 1.92 ± 0.55 nmol/10^6 cells
DNA % incorp (MOLT-4 cells [16]; incorporated as FMAU): 0.19 ± 0.01%
FAUMP formed intracellularly (RAJI cells [17]): 0.95 ± 0.17 nmol/10^6 cells
DNA % incorp (RAJI cells [17]; incorporated as FMAU): 0.09 ± 0.002%
FAUMP formed intracellularly (U-937 cells [18]): 2.70 ± 0.69 nmol/10^6 cells
FMAUTP formed intracellularly (U-937 cells [18]): 1.99 ± 0.08 nmol/10^6 cells
DNA % incorp (U-937 cells [18]; incorporated as FMAU): 0.50 ± 0.02%
DNA % incorp (L1210 cells [19]): 0.08 ± 0.005%
amounts of FMAUMP or FMAUDP found intracellularly [20]: trace amounts
growth inhibition (CEM cells [8]; 100 μM, 72 hours continuous incubation): more than 50%
growth inhibition (K-562 cells [9]; K-562, 100 μM, 72 hours continuous incubation): somewhat less inhibited
growth inhibition (MOLT-4 cells [10]): somewhat less inhibited
growth inhibition (RAJI cells [11]; 100 μM): completely uninhibited
growth inhibition (U-937 cells [12]): more than 50%
growth inhibition (L1210 cells [13]): completely uninhibited
IC50 values relative to FMAU (fold higher) [21]: 10 fold
histopathologic examination of murine tissues (toxicity) (mice): no toxicity attributable to the drug treatment
FAU concentration in plasma, maximum level [22]: 750 µM
FAU concentration in plasma, minimum level [22]: 50 µM
